Key:
Type in all cases: in vivo
[1] = test system: crabgrass (Digitaria sanquinalis); assay: Test A: field test, percent weed control of crabgrass; conditions: seven weeks after treatment
From the text: (§1) In test A, soybeans, peanuts, lima beans, green beans and squash were planted in a field infested with the following weed seeds: crabgrass (Digitaria sanquinalis), foxtails (Setaria spp.), barnyardgrass (Echinochloa crusgalli), pigweed (Amaranthus spp.), ragweed (Ambrosia artemisiifolia), velvetleaf (Abutilon theophrasti), purslane (Portulaca oleracea) and flower-of-an-hour (Hibiscus trionum). A 50% wettable powder formulation of 2-(4-chloro-2-fluorophenyl)-4,5,6,7-tetrahydro-2H-isoindole-1,3-dione was applied in the form of an aqueous suspension at rates of 0.125, 0.25, 0.5 and 1.0 kg/ha, each treatment replicated twice. The plots were rated for percent weed control and crop response seven weeks after treatment. Crop response was expressed on a scale of 0 = no injury to 10 = complete kill.

[2] = test system: ragweed (Ambrosia artemisiifolia); assay: Test A: field test, percent weed control of ragweed; conditions: seven weeks after treatment
From the text: as §1

[3] = test system: velvetleaf (Abutilon theophrasti); assay: Test A: field test, percent weed control of velvetleaf; conditions: seven weeks after treatment
From the text: as §1

[4] = test system: purslane (Portulaca oleracea); assay: Test A: field test, percent weed control of purslane; conditions: seven weeks after treatment
From the text: as §1

[5] = test system: flower-of-an-hour (Hibiscus trionum); assay: Test A: field test, percent weed control of flower-of-an-hour; conditions: seven weeks after treatment
From the text: as §1

[6] = test system: squash; assay: Test A: field test, crop response of squash; conditions: seven weeks, 0 = no injury to 10 = complete kill
From the text: as §1

[7] = test system: green beans; assay: Test A: field test, crop response of green beans; conditions: seven weeks, 0 = no injury to 10 = complete kill
From the text: as §1

[8] = test system: peanuts; assay: Test A: field test, crop response of peanuts; conditions: seven weeks, 0 = no injury to 10 = complete kill
From the text: as §1

[9] = test system: soybeans; assay: Test A: field test, crop response of soybeans; conditions: seven weeks, 0 = no injury to 10 = complete kill
From the text: as §1

[10] = test system: foxtails (Setaria spp.); assay: Test B: overall spray in carrot field after weed emergence, percent control of foxtails; conditions: six weeks after treatment, 0.1% Tween 20
From the text: (§2) Test B involved a field sown to carrots and in which the following weed species emerged naturally: crabgrass (Digitaria sanquinalis), foxtails (Setaria spp.), barnyardgrass (Echinochloa crusgalli), pigweed (Amaranthus spp.), ragweed (Ambrosia artemisiifolia), velvetleaf (Abutilon theophrasti), smartweed (Polygonum spp.) and lambsquarters (Chenopodium album). Sixteen days after sowing, when all species of weeds had emerged, the plants were sprayed overall with a 50% wettable powder formulation of 2-(4-chloro-2-fluorophenyl)4,5,6,7-tetrahydro-2H-isoindole-1,3dione (Treatment I) in the form of an aqueous suspension, at rates of 0.5, 1.0, 2.0 and 4.0 kg/ha, and with 2-(4-chlorophenyl)-4,5,6,7-tetrahydro-2H-isoindole-1,3-dione (Treatment II) in the same form and at the same rates. The spray volume was 425 l/ha. The surfactant Tween 20* was added to all treatments in a concentration of 0.1% by weight. Six weeks after treatment, visual observations were made of percent weed control obtained and, for carrots, crop response.
(§3) *Tween 20 -- A trademark of ICI of America which is the reaction product of sorbitan monolaurate with an average of 20 moles of ethylene oxide.

[11] = test system: barnyardgrass (Echinochloa crusgalli); assay: Test B: overall spray in carrot field after weed emergence, percent control of barnyardgrass; conditions: six weeks after treatment, 0.1% Tween 20
From the text: as §2, §3

[12] = test system: pigweed (Amaranthus spp.); assay: Test B: overall spray in carrot field after weed emergence, percent control of pigweed; conditions: six weeks after treatment, 0.1% Tween 20
From the text: as §2, §3

[13] = test system: crabgrass (Digitaria sanquinalis); assay: Test C: preemergence weed control in rice, crabgrass; conditions: 29 days after treatment
From the text: as §1
(§4) Test C concerned preemergence weed control in rice. The field selected contained seeds of the following weed species: crabgrass (Digitaria sanquinalis), foxtail (Setaria spp.), barnyardgrass (Echinochloa crusgalli), pigweed (Amaranthus spp.), ragweed (Ambrosia artemisiifolia), velvetleaf (Abutilon theophrasti), purslane (Portulaca oleracea) and flower-of-an-hour (Hibiscus trionum). Two varieties of rice, CSM-3 and Nato, were planted at depths of both 1 and 2 cm. In addition, rice seedlings of both varieties were transplanted into the field to be treated. Immediately thereafter, the plot was treated with an aqueous suspension of 2-(4-chloro-2-fluorophenyl)-4,5,6,7-tetrahydro-2H-isoindole-1,3-dione (Treatment I) at rates of 0.125 and 0.25 kg/ha, and an aqueous suspension of 2-(4-chlorophenyl)-4,5,6,7-tetrahydro-2H-isoindole-1,3dione (Treatment II) at rates of 0.25, 0.50, 1.00 and 2.00 kg/ha. The test chemicals had been formulated as 50% wettable powders. Overall spray volume was 540 l/ha. Ratings of percent weed control obtained and crop response were made 29 days after treatment, as described for test A. The ratings are summarized in the following Table III.

[14] = test system: barnyardgrass (Echinochloa crusgalli); assay: Test C: preemergence weed control in rice, barnyardgrass; conditions: 29 days after treatment
From the text: as §1, §4

[15] = test system: pigweed (Amaranthus spp.); assay: Test C: preemergence weed control in rice, pigweed; conditions: 29 days after treatment
From the text: as §1, §4

[16] = test system: velvetleaf (Abutilon theophrasti); assay: Test C: preemergence weed control in rice, velvetleaf; conditions: 29 days after treatment
From the text: as §1, §4

[17] = test system: naturally emerging weeds; assay: Test B: control of naturally emerging weeds, comparison of treatments
From the text: as §2, §3

[18] = test system: carrots; assay: Test B: overall spray in carrot field after weed emergence, crop response of carrots; conditions: six weeks after treatment, 0.1% Tween 20
From the text: as §2, §3

O=C1C2=C(CCCC2)C(=O)N1c1ccc(Cl)cc1F [Treatment I, 2-(4-chloro-2-fluorophenyl)-4,5,6,7-tetrahydro-2H-isoindole-1,3-dione]
% Control, Crabgrass ([1]; 0.125 kg/ha): 60%
% Control, Crabgrass ([1]; 0.25 kg/ha): 94%
% Control, Crabgrass ([1]; 0.50 kg/ha): 99%
% Control, Crabgrass ([1]; 1.00 kg/ha): 99%
% Control, Ragweed ([2]; 0.125 kg/ha): 90%
% Control, Ragweed ([2]; 0.25 kg/ha): 99%
% Control, Ragweed ([2]; 0.50 kg/ha): 99%
% Control, Ragweed ([2]; 1.00 kg/ha): 100%
% Control, Velvetleaf ([3]; 0.125 kg/ha): 90%
% Control, Velvetleaf ([3]; 0.25 kg/ha): 99%
% Control, Velvetleaf ([3]; 0.50 kg/ha): 100%
% Control, Velvetleaf ([3]; 1.00 kg/ha): 100%
% Control, Purslane ([4]; 0.125 kg/ha): 82%
% Control, Purslane ([4]; 0.25 kg/ha): 97%
% Control, Purslane ([4]; 0.50 kg/ha): 100%
% Control, Purslane ([4]; 1.00 kg/ha): 100%
% Control, Flower-of-an-Hour ([5]; 0.125 kg/ha): 87%
% Control, Flower-of-an-Hour ([5]; 0.25 kg/ha): 99%
% Control, Flower-of-an-Hour ([5]; 0.50 kg/ha): 99%
% Control, Flower-of-an-Hour ([5]; 1.00 kg/ha): 100%
Crop Response, Squash ([6]; 0.125 kg/ha): 2
Crop Response, Squash ([6]; 0.25 kg/ha): 2
Crop Response, Squash ([6]; 0.50 kg/ha): 6
Crop Response, Squash ([6]; 1.00 kg/ha): 9.5
Crop Response, Green beans ([7]; 0.125 kg/ha): 2
Crop Response, Green beans ([7]; 0.25 kg/ha): 2.5
Crop Response, Green beans ([7]; 0.50 kg/ha): 8
Crop Response, Green beans ([7]; 1.00 kg/ha): 8.5
Crop Response, Peanuts ([8]; 0.125 kg/ha): 0
Crop Response, Peanuts ([8]; 0.25 kg/ha): 0
Crop Response, Peanuts ([8]; 0.50 kg/ha): 2
Crop Response, Peanuts ([8]; 1.00 kg/ha): 3.5
Crop Response, Soybeans ([9]; 0.125 kg/ha): 0
Crop Response, Soybeans ([9]; 0.25 kg/ha): 1.5
Crop Response, Soybeans ([9]; 0.50 kg/ha): 3
Crop Response, Soybeans ([9]; 1.00 kg/ha): 7.5
% Control, Foxtails ([10]; 0.5 kg/ha): 70%
% Control, Foxtails ([10]; 1.0 kg/ha): 90%
% Control, Foxtails ([10]; 2.0 kg/ha): 94%
% Control, Foxtails ([10]; 4.0 kg/ha): > 99%
% Control, Barnyardgrass ([11]; 0.5 kg/ha): 65%
% Control, Barnyardgrass ([11]; 1.0 kg/ha): 90%
% Control, Barnyardgrass ([11]; 2.0 kg/ha): 94%
% Control, Barnyardgrass ([11]; 4.0 kg/ha): > 99%
% Control, Pigweed ([12]; 0.5 kg/ha): 92%
% Control, Pigweed ([12]; 1.0 kg/ha): 99%
% Control, Pigweed ([12]; 2.0 kg/ha): 100%
% Control, Pigweed ([12]; 4.0 kg/ha): 100%
% Control, Crabgrass ([13]; 0.125 kg/ha): 96%
% Control, Crabgrass ([13]; 0.25 kg/ha): 100%
% Control, Barnyardgrass ([14]; 0.125 kg/ha): 90%
% Control, Barnyardgrass ([14]; 0.25 kg/ha): 99%
% Control, Pigweed ([15]; 0.125 kg/ha): 99%
% Control, Pigweed ([15]; 0.25 kg/ha): 100%
% Control, Velvetleaf ([16]; 0.125 kg/ha): 100%
% Control, Velvetleaf ([16]; 0.25 kg/ha): 100%
control of crabgrass, foxtails and barnyardgrass, in words ([17]; compared to Treatment II): outstanding when compared to Treatment II
% control results, in words ([17]; eight naturally emerging weeds, versus Treatment II): clearly superior to Treatment II

O=C1C2=C(CCCC2)C(=O)N1c1ccc(Cl)cc1 [Treatment II, 2-(4-chlorophenyl)-4,5,6,7-tetrahydro-2H-isoindole-1,3-dione]
% Control, Foxtails ([10]; 0.5 kg/ha): 0%
% Control, Foxtails ([10]; 1.0 kg/ha): 20%
% Control, Foxtails ([10]; 2.0 kg/ha): 40%
% Control, Foxtails ([10]; 4.0 kg/ha): 40%
% Control, Barnyardgrass ([11]; 0.5 kg/ha): 0%
% Control, Barnyardgrass ([11]; 1.0 kg/ha): 20%
% Control, Barnyardgrass ([11]; 2.0 kg/ha): 40%
% Control, Barnyardgrass ([11]; 4.0 kg/ha): 50%
% Control, Pigweed ([12]; 0.5 kg/ha): 50%
% Control, Pigweed ([12]; 1.0 kg/ha): 70%
% Control, Pigweed ([12]; 2.0 kg/ha): 90%
% Control, Pigweed ([12]; 4.0 kg/ha): 99%
Crop Response, Carrots ([18]; 0.5 kg/ha): 4
Crop Response, Carrots ([18]; 1.0 kg/ha): 4
Crop Response, Carrots ([18]; 2.0 kg/ha): 4
Crop Response, Carrots ([18]; 4.0 kg/ha): 4
% Control, Crabgrass ([13]; 0.25 kg/ha): 99%
% Control, Crabgrass ([13]; 0.50 kg/ha): 100%
% Control, Crabgrass ([13]; 1.0 kg/ha): 100%
% Control, Crabgrass ([13]; 2.0 kg/ha): 100%
% Control, Barnyardgrass ([14]; 0.25 kg/ha): 58%
% Control, Barnyardgrass ([14]; 0.50 kg/ha): 97%
% Control, Barnyardgrass ([14]; 1.0 kg/ha): 99%
% Control, Barnyardgrass ([14]; 2.0 kg/ha): 100%
% Control, Pigweed ([15]; 0.25 kg/ha): 100%
% Control, Pigweed ([15]; 0.50 kg/ha): 100%
% Control, Pigweed ([15]; 1.0 kg/ha): 100%
% Control, Pigweed ([15]; 2.0 kg/ha): 100%
% Control, Velvetleaf ([16]; 0.25 kg/ha): 100%
% Control, Velvetleaf ([16]; 0.50 kg/ha): 100%
% Control, Velvetleaf ([16]; 1.0 kg/ha): 100%
% Control, Velvetleaf ([16]; 2.0 kg/ha): 100%

— patent US4001272A, “Herbicidal 2-fluoro-4-halo-phenyl-4,5,6,7-tetrahydro-2H-isoindole-1,3-diones” (E. I. Du Pont de Nemours and Company, priority 1974, dated 1977)
